# In patent publication US4366159A (priority 1981, dated 1982):
# Counter-ions that a name gives are not always drawn. Like-named read-outs stand apart in the source and are kept apart here.
# Tests used:
# [1] = anesthetic requirement (MAC) for cyclopropane, tail-clamp technique; format: in vivo, Sprague-Dawley rats
# Description: (§1) The effect on anesthetic requirements and PaCO2 of combined doses of nalbuphine hydrochloride and morphine sulfate was evaluated in 18 Sprague-Dawley rats (200-350 gms). Anesthetic requirements for cyclopropane anesthetic of each rat was determined using a tail-clamp technique (Munson et al., The Effect of Acute Hypothyroidism and Hyperthyoidism on Cyclopropane Requirements (MAC) in Rats, Anesthesiology 1968; 29:1094-1098). After induction of anesthesia with cyclopropane, the femoral artery and vein were exposed and catheterized with PE50 tubing. Anesthetic requirement as measured by minimal alveolar concentration (MAC) was determined and thereafter nalbuphine hydrochloride was administered intravenously. Upon completion of control measurements, a bolus dose of 0.04 mg/kg of nalbuphine hydrochloride was followed with a constant infusion of 0.1 mg/kg/min. After 45 minutes of continuous infusion, MAC was redetermined and arterial blood sampling repeated. The rat then received either 2, 4 or 8 mg/kg subcutaneously of morphine sulfate and after 30 minutes MAC and arterial blood gas (ABG) values (PaO2, PaCO2, pH, HCO3) redetermined.
# The effect of morphine sulfate alone on anesthetic requirement and respiration was evaluated in a separate group of five Sprague-Dawley rats. After baseline measurements of anesthetic requirement (MAC) and ABG values, 2 mg/kg of morphine sulfate was given subcutaneously and after 30 minutes, repeat measurements of anesthetic requirements and blood gases were carried out.
# Statistical evaluation was carried out using analysis of variance comparing the groups of animals at different infusion rates of nalbuphine hydrochloride, and for the animals receiving the combined morphine sulfatenalbuphine hydrochloride doses.
# [2] = human, in vivo
# Description: The nalbuphine was administered parenterally as each patient was coming out of the anesthesia. […] The respiratory effect of the nalbuphine was established by measurement of arterial PaCO2 using a blood gas analyzer well known in respiratory therapy. Normal PaCO2 is in the range of 35-42 mmHg. All arterial samples were obtained on an inspired oxygen concentration of 100%.
# [3] = mouse antiphenylquinone writhing test; conditions: for % mice blocked: 0:1 (morphine SO4 only)
# [4] = Description: as §1
# The effect of morphine sulfate alone on anesthetic requirement and respiration was evaluated in a separate group of five Sprague-Dawley rats. […]
# [5] = from a previous study, cited from earlier work
SMILES,"MAC Reduction % (Mean ± SEM) ([1]; rat, in vivo) [%]",duration of analgesia [2] [h],emergence from anesthesia [2],hypoxia and shunt [2],pH after nalbuphine [2],respiratory acidosis present before nalbuphine [2],respiratory depression resulting from the narcotic [2],"ED50 at 10 min., Nalbuphine HCl ([3]; mouse, in vivo, sc) [mg/kg]","PaCO2 (Mean ± SEM) ([4]; rat, in vivo) [mmHg]",MAC Reduction % (Mean ± SEM) ([5]; morphine SO4 2 mg/kg sc) [%],MAC Reduction % (Mean ± SEM) ([5]; morphine SO4 4 mg/kg sc) [%],MAC Reduction % (Mean ± SEM) ([5]; morphine SO4 8 mg/kg sc) [%],"MAC Reduction % (Mean ± SEM) ([1]; morphine SO4 2 mg/kg sc, 30 min) [%]","MAC Reduction % (Mean ± SEM) ([1]; morphine SO4 2 mg/kg sc, 30 min, listed as morphine) [%]","% mice blocked ([3]; s.c., 10 min, 0.373 mg/kg) [%]","% mice blocked ([3]; s.c., 10 min, 0.745 mg/kg) [%]","% mice blocked ([3]; s.c., 10 min, 1.49 mg/kg) [%]","% mice blocked ([3]; s.c., 10 min, 2.98 mg/kg) [%]","ED50 at 10 min., Morphine SO4 ([3]; s.c., 10 min, morphine SO4 dose (alone or as component of combination), N = 30 mice/dose, 95% conf. limits printed on following lines) [mg/kg]",mean PaCO2 compared with comparable MAC reduction dose of nalbuphine ([4]; morphine 2 mg/kg)
"Oc1ccc2c3c1O[C@H]1[C@@H](O)CC[C@@]4(O)[C@@H](C2)N(CC2CCC2)CC[C@]314 [Nalbuphine HCl, (-)-17-(cyclobutylmethyl)-4,5α-epoxymorphinan-3,6α, 14-triol]",21.62 ± 0.69,8 to 12,"smooth, rapid","No patient was hypoxic, nor was there any significant shunt present",7.35±0.6,completely reversed,reversed in all cases,2.17,48.31 ± 1.07,–,–,–,–,–,–,–,–,–,–,–
CN1CC[C@]23c4c5ccc(O)c4O[C@H]2[C@@H](O)C=C[C@H]3[C@H]1C5 [Morphine SO4],–,–,–,–,–,–,–,–,–,21.80 ± 1.48,32.63 ± 0.98,54.87 ± 1.94,22 ± 0.55,22,17,37,83,100,0.832,significantly higher
